The values that follow come from ChEMBL document CHEMBL1128690, “Design of potent non-thiourea H3-receptor histamine antagonists” (J Med Chem, 1995).

The target in the first assay is T1, Histamine H3 receptor (Rattus norvegicus, UniProt Q9QYN8). Kind of assay: The compound was tested in vitro for antagonistic activity against H3-receptor in the rat cerebral cortex; Not active (tested up to 1000 nM). Format: functional, tissue-based.
T1 sequence (Q9QYN8 whole entry): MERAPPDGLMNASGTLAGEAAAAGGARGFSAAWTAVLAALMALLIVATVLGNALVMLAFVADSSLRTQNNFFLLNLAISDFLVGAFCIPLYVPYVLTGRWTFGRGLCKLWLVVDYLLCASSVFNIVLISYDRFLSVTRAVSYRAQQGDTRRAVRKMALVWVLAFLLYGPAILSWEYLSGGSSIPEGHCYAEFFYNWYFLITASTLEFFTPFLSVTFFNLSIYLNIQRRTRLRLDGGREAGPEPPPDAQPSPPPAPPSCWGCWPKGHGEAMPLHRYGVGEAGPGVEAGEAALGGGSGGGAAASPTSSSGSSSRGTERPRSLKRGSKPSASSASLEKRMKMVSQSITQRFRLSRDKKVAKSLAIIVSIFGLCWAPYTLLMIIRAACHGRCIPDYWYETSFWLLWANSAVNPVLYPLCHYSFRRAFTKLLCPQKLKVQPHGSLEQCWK
Consider `S=C(NCCCn1ccnc1)NC1CCCCC1`, for which the Ki (in general, a measure of affinity in units of concentration, obtained from inhibition or displacement) is “Not Active”.

A further assay has as its target T1, Histamine H3 receptor. Kind of assay: In vitro antagonism of the histamine H3-receptor in the rat cerebral cortex. Format: functional, tissue-based.
`Clc1cc(NCCc2cnc[nH]2)ccn1` registered an inhibitory constant (Ki) of 160 nM.

Compound `COC(=O)c1ccc(NCCc2cnc[nH]2)nc1` returned an inhibition constant Ki of 42 nM.

As for `O=[N+]([O-])c1ccc(NCCc2ccccn2)nc1`, the inhibitory constant (Ki) was around 1000 nM.

On to `O=[N+]([O-])c1ccc(NCCCc2c[nH]cn2)nc1`, for which the Ki turned out to be 170 nM.

In turn, `O=[N+]([O-])c1ccc(SCc2c[nH]cn2)nc1` gave a Ki of around 600 nM.

Consider `c1ccc(SCCc2cnc[nH]2)nc1`, for which the inhibition constant Ki is 92 nM.

As for `S=C(NCCSCc1c[nH]cn1)NC1CCCCC1`, the Ki was around 500 nM.

`FC(F)(F)c1ccc(N2CCC(c3cnc[nH]3)CC2)nc1` gave a Ki of 42 nM.

As to `FC(F)(F)c1ccc(NCCc2cnc[nH]2)nc1`, the affinity corresponds to a Ki of 17 nM.

`c1ccc(CCNc2ncccn2)nc1` yielded a Ki above 10000 nM.

The compound `c1cnc(NCCc2c[nH]cn2)cn1` had a Ki of 200 nM.

`O=[N+]([O-])c1cc[n+]([O-])c(NCCc2c[nH]cn2)c1`: the affinity, expressed as Ki, was 53 nM.

On to `c1ccc(NCCc2c[nH]cn2)nc1`, for which the inhibitory constant (Ki) is 200 nM.

On to `O=[N+]([O-])c1cccnc1NCCc1c[nH]cn1`, for which the Ki turned out to be 240 nM.

With `c1c[nH]c(SCCc2cnc[nH]2)n1`, affinity was put at a Ki of 400 nM.

`c1csc(NCCc2cnc[nH]2)n1` displayed a Ki of 340 nM.

`O=[N+]([O-])c1ccc(NCCc2c[nH]cn2)nc1` showed a Ki of 29 nM.

As to `S=C(NCCc1c[nH]cn1)NC1CCCCC1`, the Ki is around 200 nM.

Take `S=C(NCCCc1cnc[nH]1)NC1CCCCC1`: the Ki turned out to be 13 nM.

Compound `CNC(=S)NCCCCc1cnc[nH]1` [BURIMAMIDE] returned a Ki of 70 nM.

Compound `S=C(NC1CCCCC1)N1CCC(c2cnc[nH]2)CC1` [THIOPERAMIDE] yielded a Ki of 4.3 nM. This Ki lies about 16-fold lower than the previous one.
